Results published in US10011607B2, “Ethynyl derivatives” (Hoffmann-La Roche Inc., priority 2015, dated 2018).

Biological target: human mGlu4 receptor (Homo sapiens (Human), UniProt Q14833)
Assay: Ca2+ mobilization in vitro assay on recombinant human mGlu4 expressed in HEK293 cells (PAM)
Type: cell-based
Conditions: for Emax: HEK293, maximal response in % of maximal stimulatory effect of saturating L-AP4, read-out: Eff. (%); for EC50: HEK293 cells, human mGlu4, in presence of EC20 of L-AP4, read-out: EC50 (nM) mGlu4PAM
Text: FIG. 1: Illustrates the experimental outline for mGlu4 PAM Ca^2+ mobilization screening assay and the determination of EC50 and % Emax values. […] A depression of the signal observed after addition of the EC20 concentration of L-AP4 was indicative of an inhibitory activity of the test compound.
Determination of EC50 Values Using a Ca2+ Mobilization In Vitro Assay on Recombinant Human mGlu4 Expressed in HEK293 Cells:
A monoclonal HEK-293 cell line stably transfected with a cDNA encoding for the human mGlu4 receptor was generated; for the work with mGlu4 Positive Allosteric Modulators (PAMs), a cell line with low receptor expression levels and low constitutive receptor activity was selected to allow the differentiation of agonistic versus PAM activity. Cells were cultured according to standard protocols (Freshney, 2000) in Dulbecco's Modified Eagle Medium with high glucose supplemented with 1 mM glutamine, 10% (vol/vol) heat-inactivated bovine calf serum, Penicillin/Streptomycin, 50 μg/ml hygromycin and 15 μg/ml blasticidin (all cell culture reagents and antibiotics from Invitrogen, Basel, Switzerland).
About 24 hrs before an experiment, 5×10^4 cells/well were seeded in poly-D-lysine coated, black/clear-bottomed 96-well plates. The cells were loaded with 2.5 μM Fluo-4AM in loading buffer (1×HBSS, 20 mM HEPES) for 1 hr at 37° C. and washed five times with loading buffer. The cells were transferred into a Functional Drug Screening System 7000 (Hamamatsu, Paris, France), and 11 half logarithmic serial dilutions of test compound at 37° C. were added and the cells were incubated for 10-30 min. with on-line recording of fluorescence. Following this pre-incubation step, the agonist (2S)-2-amino-4-phosphonobutanoic acid (L-AP4) was added to the cells at a concentration corresponding to EC20 with on-line recording of fluorescence; in order to account for day-to-day variations in the responsiveness of cells, the EC20 of L-AP4 was determined immediately ahead of each experiment by recording of a full dose-response curve of L-AP4.
Responses were measured as peak increase in fluorescence minus basal (i.e. fluorescence without addition of L-AP4), normalized to the maximal stimulatory effect obtained with saturating concentrations of L-AP4. Graphs were plotted with the % maximal stimulatory using XLfit, a curve fitting program that iteratively plots the data using Levenburg Marquardt algorithm. The single site competition analysis equation used was y=A+((B−A)/(1+((x/C)D))), where y is the % maximal stimulatory effect, A is the minimum y, B is the maximum y, C is the EC50, x is the log 10 of the concentration of the competing compound and D is the slope of the curve (the Hill Coefficient). From these curves the EC50 (drug concentration at which 50% of the maximal receptor activation was achieved), the Hill coefficient as well as the maximal response in % of the maximal stimulatory effect obtained with saturating concentrations of L-AP4 were calculated (see FIG. 1).

Sequence of human mGlu4 receptor (Q14833 33-912): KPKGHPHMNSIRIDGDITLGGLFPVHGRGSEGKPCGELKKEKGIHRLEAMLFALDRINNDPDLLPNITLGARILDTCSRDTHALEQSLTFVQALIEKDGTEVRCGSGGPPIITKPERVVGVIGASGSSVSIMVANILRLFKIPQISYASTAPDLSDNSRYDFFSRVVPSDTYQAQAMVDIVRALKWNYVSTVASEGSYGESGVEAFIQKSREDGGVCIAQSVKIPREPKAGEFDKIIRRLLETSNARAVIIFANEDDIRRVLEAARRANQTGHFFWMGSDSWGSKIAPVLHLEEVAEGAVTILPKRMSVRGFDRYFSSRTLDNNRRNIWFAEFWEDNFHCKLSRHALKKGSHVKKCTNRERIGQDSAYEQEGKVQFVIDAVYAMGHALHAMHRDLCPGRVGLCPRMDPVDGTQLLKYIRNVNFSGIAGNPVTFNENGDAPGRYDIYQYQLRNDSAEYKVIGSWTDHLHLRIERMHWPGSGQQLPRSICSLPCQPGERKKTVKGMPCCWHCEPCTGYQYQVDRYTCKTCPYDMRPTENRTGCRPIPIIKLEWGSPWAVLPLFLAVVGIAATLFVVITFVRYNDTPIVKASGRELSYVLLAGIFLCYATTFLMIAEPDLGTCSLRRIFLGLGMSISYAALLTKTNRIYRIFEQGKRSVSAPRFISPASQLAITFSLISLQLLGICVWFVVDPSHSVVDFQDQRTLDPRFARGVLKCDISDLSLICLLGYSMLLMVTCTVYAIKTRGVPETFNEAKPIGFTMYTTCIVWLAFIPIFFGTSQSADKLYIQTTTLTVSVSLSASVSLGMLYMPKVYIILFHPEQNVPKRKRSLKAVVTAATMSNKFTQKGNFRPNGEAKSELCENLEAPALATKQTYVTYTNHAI

SMILES | Emax | EC50
O=C1C2CC(=O)N(c3c(F)cc(C#Cc4ccccc4)cc3F)C(=O)N2CCN1c1cccnc1 (racemic) [Example 1, (9aRS)-7-[2,6-difluoro-4-(2-phenylethynyl)phenyl]-2-(3-pyridyl)-3,4,9,9a-tetrahydropyrazino[1,2-c]pyrimidine-1,6,8-trione] | 105% | 224 nM
O=C1C2CC(=O)N(c3c(F)cc(C#Cc4ccccc4)cc3F)C(=O)N2CCN1c1ccncn1 (racemic) [Example 2, (9aRS)-7-[2,6-difluoro-4-(2-phenylethynyl)phenyl]-2-pyrimidin-4-yl-3,4,9,9a-tetrahydropyrazino[1,2-c]pyrimidine-1,6,8-trione] | 88% | 85 nM
O=C1C2CC(=O)N(c3c(F)cc(C#Cc4ccccc4)cc3F)C(=O)N2CCN1c1ccccn1 (racemic) [Example 3, (9aRS)-7-[2,6-difluoro-4-(2-phenylethynyl)phenyl]-2-(2-pyridyl)-3,4,9,9a-tetrahydropyrazino[1,2-c]pyrimidine-1,6,8-trione] | 116% | 235 nM
CC12CC(=O)N(c3c(F)cc(C#Cc4ccccc4)cc3F)C(=O)N1CCN(c1ccccn1)C2=O (racemic) [Example 4, (9aRS)-7-[2,6-difluoro-4-(2-phenylethynyl)phenyl]-9a-methyl-2-(2-pyridyl)-4,9-dihydro-3H-pyrazino[1,2-c]pyrimidine-1,6,8-trione] | 110% | 119 nM
CC12CC(=O)N(c3c(F)cc(C#Cc4ccccc4)cc3F)C(=O)N1CCN(c1cccnc1)C2=O (racemic) [Example 6, (9aRS)-7-[2,6-difluoro-4-(2-phenylethynyl)phenyl]-9a-methyl-2-(3-pyridyl)-4,9-dihydro-3H-pyrazino[1,2-c]pyrimidine-1,6,8-trione] | 122% | 118 nM
CC12CC(=O)N(c3c(F)cc(C#Cc4ccccc4)cc3F)C(=O)N1CCN(c1ccncc1)C2=O (racemic) [Example 8, (9aRS)-7-[2,6-difluoro-4-(2-phenylethynyl)phenyl]-9a-methyl-2-(4-pyridyl)-4,9-dihydro-3H-pyrazino[1,2-c]pyrimidine-1,6,8-trione] | 118% | 129 nM
Cc1cccc(N2CCN3C(=O)N(c4c(F)cc(C#Cc5ccccc5)cc4F)C(=O)CC3(C)C2=O)n1 (racemic) [Example 10, (9aRS)-7-[2,6-difluoro-4-(2-phenylethynyl)phenyl]-9a-methyl-2-(6-methyl-2-pyridyl)-4,9-dihydro-3H-pyrazino[1,2-c]pyrimidine-1,6,8-trione] | 127% | 163 nM
Cc1cc(N2CCN3C(=O)N(c4c(F)cc(C#Cc5ccccc5)cc4F)C(=O)CC3(C)C2=O)ccn1 (racemic) [Example 11, (9aRS)-7-[2,6-difluoro-4-(2-phenylethynyl)phenyl]-9a-methyl-2-(2-methyl-4-pyridyl)-4,9-dihydro-3H-pyrazino[1,2-c]pyrimidine-1,6,8-trione] | 119% | 214 nM
Cc1ccnc(N2CCN3C(=O)N(c4c(F)cc(C#Cc5ccccc5)cc4F)C(=O)CC3(C)C2=O)c1 (racemic) [Example 12, (9aRS)-7-(2,6-difluoro-4-(phenylethynyl)phenyl)-9a-methyl-2-(4-methylpyridin-2-yl)tetrahydro-1H-pyrazino[1,2-c]pyrimidine-1,6,8(2H,7H)-trione] | 126% | 131 nM
Cc1cncc(N2CCN3C(=O)N(c4c(F)cc(C#Cc5ccccc5)cc4F)C(=O)CC3(C)C2=O)c1 (racemic) [Example 14, (9aRS)-7-[2,6-difluoro-4-(2-phenylethynyl)phenyl]-9a-methyl-2-(5-methyl-3-pyridyl)-4,9-dihydro-3H-pyrazino[1,2-c]pyrimidine-1,6,8-trione] | 129% | 105 nM
Cc1ccc(N2CCN3C(=O)N(c4c(F)cc(C#Cc5ccccc5)cc4F)C(=O)CC3(C)C2=O)cn1 (racemic) [Example 16, (9aRS)-7-[2,6-difluoro-4-(2-phenylethynyl)phenyl]-9a-methyl-2-(6-methyl-3-pyridyl)-4,9-dihydro-3H-pyrazino[1,2-c]pyrimidine-1,6,8-trione] | 125% | 298 nM
CC12CC(=O)N(c3c(F)cc(C#Cc4ccccc4)cc3F)C(=O)N1CCN(c1ccnc(Cl)c1)C2=O (racemic) [Example 18, (9aRS)-2-(2-chloro-4-pyridyl)-7-[2,6-difluoro-4-(2-phenylethynyl)phenyl]-9a-methyl-4,9-dihydro-3H-pyrazino[1,2-c]pyrimidine-1,6,8-trione] | 131% | 114 nM
CC12CC(=O)N(c3c(F)cc(C#Cc4ccccc4)cc3F)C(=O)N1CCN(c1ccc(Cl)nc1)C2=O (racemic) [Example 20, (9aRS)-2-(6-chloro-3-pyridyl)-7-[2,6-difluoro-4-(2-phenylethynyl)phenyl]-9a-methyl-4,9-dihydro-3H-pyrazino[1,2-c]pyrimidine-1,6,8-trione] | 101% | 116 nM
COc1ccc(N2CCN3C(=O)N(c4c(F)cc(C#Cc5ccccc5)cc4F)C(=O)CC3(C)C2=O)cn1 (racemic) [Example 22, (9aRS)-7-[2,6-difluoro-4-(2-phenylethynyl)phenyl]-2-(6-methoxy-3-pyridyl)-9a-methyl-4,9-dihydro-3H-pyrazino[1,2-c]pyrimidine-1,6,8-trione] | 106% | 105 nM
CC12CC(=O)N(c3c(F)cc(C#Cc4ccccc4)cc3F)C(=O)N1CCN(c1ncccn1)C2=O (racemic) [Example 25, (9aRS)-7-[2,6-difluoro-4-(2-phenylethynyl)phenyl]-9a-methyl-2-pyrimidin-2-yl-4,9-dihydro-3H-pyrazino[1,2-c]pyrimidine-1,6,8-trione] | 122% | 135 nM
CC12CC(=O)N(c3c(F)cc(C#Cc4ccccc4)cc3F)C(=O)N1CCN(c1ccncn1)C2=O (racemic) [Example 26, (9aRS)-7-[2,6-difluoro-4-(2-phenylethynyl)phenyl]-9a-methyl-2-pyrimidin-4-yl-4,9-dihydro-3H-pyrazino[1,2-c]pyrimidine-1,6,8-trione] | 101% | 36 nM
CC12CC(=O)N(c3c(F)cc(C#Cc4ccccc4)cc3F)C(=O)N1CCN(c1cncnc1)C2=O (racemic) [Example 28, (9aRS)-7-[2,6-difluoro-4-(2-phenylethynyl)phenyl]-9a-methyl-2-pyrimidin-5-yl-4,9-dihydro-3H-pyrazino[1,2-c]pyrimidine-1,6,8-trione] | 120% | 145 nM
Cc1cc(N2CCN3C(=O)N(c4c(F)cc(C#Cc5ccccc5)cc4F)C(=O)CC3(C)C2=O)nc(C)n1 (racemic) [Example 29, (9aRS)-7-[2,6-difluoro-4-(2-phenylethynyl)phenyl]-2-(2,6-dimethylpyrimidin-4-yl)-9a-methyl-4,9-dihydro-3H-pyrazino[1,2-c]pyrimidine-1,6,8-trione] | 112% | 177 nM
Cc1nccc(N2CCN3C(=O)N(c4c(F)cc(C#Cc5ccccc5)cc4F)C(=O)CC3(C)C2=O)n1 (racemic) [Example 30, (9aRS)-7-[2,6-difluoro-4-(2-phenylethynyl)phenyl]-9a-methyl-2-(2-methylpyrimidin-4-yl)-4,9-dihydro-3H-pyrazino[1,2-c]pyrimidine-1,6,8-trione] | 101% | 113 nM
CC12CC(=O)N(c3c(F)cc(C#Cc4ccccc4)cc3F)C(=O)N1CCN(c1cnccn1)C2=O (racemic) [Example 32, (9aRS)-7-[2,6-difluoro-4-(2-phenylethynyl)phenyl]-9a-methyl-2-pyrazin-2-yl-4,9-dihydro-3H-pyrazino[1,2-c]pyrimidine-1,6,8-trione] | 112% | 88 nM
Cc1cncc(N2CCN3C(=O)N(c4c(F)cc(C#Cc5ccccc5)cc4F)C(=O)CC3(C)C2=O)n1 (racemic) [Example 34, (9aRS)-7-[2,6-difluoro-4-(2-phenylethynyl)phenyl]-9a-methyl-2-(6-methylpyrazin-2-yl)-4,9-dihydro-3H-pyrazino[1,2-c]pyrimidine-1,6,8-trione] | 114% | 148 nM
